Experimental data: the supplement of paper PMC10883282
± gives the standard deviation of the averaged measurements.

Test system: SK-ES-1
Test: relative viability vs DMSO control (72 h) (fraction); higher = more viable cells
Method in brief: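 Sarcoma cell lines were grown in 384-well plates seeded toward 80–90% confluence and exposed 24 h later to serially diluted compound. After 72 h at 37 °C and 5% CO2, with 0.1% DMSO vehicle and a 5 µM positive control on the plates, ATPLite was read. Relative viability, given as percent growth averaged over up to triplicate wells, was rescaled so that 1 is full and 0 is none.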

| SMILES | relative viability (0.00017 µM) | relative viability (0.00051 µM) | relative viability (0.00152 µM) | relative viability (0.00457 µM) | relative viability (0.01372 µM) | relative viability (0.04115 µM) | relative viability (0.1235 µM) | relative viability (0.3704 µM) | relative viability (1.111 µM) | relative viability (3.333 µM) | relative viability (10 µM) | relative viability (2 pM) | relative viability (5 pM) | relative viability (15 pM) | relative viability (50 pM) | relative viability (0.00014 µM) | relative viability (0.00041 µM) | relative viability (0.0012 µM) | relative viability (0.0037 µM) | relative viability (0.011 µM) | relative viability (200 fM) | relative viability (600 fM) |
| --- | --- | --- | --- | --- | --- | --- | --- | --- | --- | --- | --- | --- | --- | --- | --- | --- | --- | --- | --- | --- | --- | --- |
| CC(C)NC(=O)C1CCC(n2c(NC(=O)c3ccc(F)cc3)nc3ccc(CN4CCC(C(C)(C)O)CC4)cc32)CC1 (stereo not drawn) [Belizatinib] | 1.03 ± 0.038 | 1.02 ± 0.041 | 1.06 ± 0.031 | 1.05 ± 0.029 | 1.05 ± 0.039 | 1.08 ± 0.032 | 0.943 ± 0.065 | 0.633 ± 0.031 | 0.311 ± 0.013 | 0.208 ± 0.01 | 0.0946 ± 0.0023 |  |  |  |  |  |  |  |  |  |  |  |
| C=CC(=O)N1CCC[C@@H](n2nc(-c3ccc(Oc4ccccc4)cc3)c3c(N)ncnc32)C1 [Ibrutinib] | 1.008 ± 0.0073 | 1.02 ± 0.054 | 1.02 ± 0.026 | 1.02 ± 0.054 | 1 ± 0.085 | 1.04 ± 0.03 | 1 ± 0.011 | 1.06 ± 0.036 | 1.057 ± 0.0088 | 1.02 ± 0.021 | 0.743 ± 0.043 |  |  |  |  |  |  |  |  |  |  |  |
| O=C(Cc1ccc(-c2ccc(OCCN3CCOCC3)cc2)cn1)NCc1ccccc1 [KX2-391] | 1.07 ± 0.02 | 1.11 ± 0.035 | 1.05 ± 0.059 | 1.07 ± 0.026 | 1.05 ± 0.032 | 0.235 ± 0.039 | 0.024 ± 0.0039 | 0.0226 ± 0.00042 | 0.0192 ± 0.0041 | 0.0176 ± 0.0029 | 0.0223 ± 0.0021 |  |  |  |  |  |  |  |  |  |  |  |
| CC(=O)Nc1cccc(-n2c(=O)n(C3CC3)c(=O)c3c(Nc4ccc(I)cc4F)n(C)c(=O)c(C)c32)c1 [Trametinib] | 1.03 ± 0.035 | 1.04 ± 0.025 | 0.987 ± 0.031 | 0.99 ± 0.028 | 0.937 ± 0.077 | 0.984 ± 0.063 | 0.976 ± 0.031 | 0.969 ± 0.048 | 0.962 ± 0.05 | 0.948 ± 0.059 | 0.923 ± 0.017 |  |  |  |  |  |  |  |  |  |  |  |
| COc1cc2nccc(Oc3ccc(NC(=O)Nc4cc(C)on4)c(Cl)c3)c2cc1OC [Tivozanib] | 1.02 ± 0.058 | 1.02 ± 0.019 | 1.03 ± 0.065 | 1.04 ± 0.028 | 1.11 ± 0.021 | 1.07 ± 0.021 | 1.08 ± 0.06 | 1.08 ± 0.023 | 1.06 ± 0.041 | 0.973 ± 0.035 | 0.518 ± 0.018 |  |  |  |  |  |  |  |  |  |  |  |
| COc1cc2c(cc1O)CCN[C@]21CS[C@@H]2c3c(OC(C)=O)c(C)c4c(c3[C@H](COC1=O)N1[C@@H]2[C@H]2c3c(cc(C)c(OC)c3O)C[C@@H]([C@@H]1O)N2C)OCO4 [Trabectedin] |  |  |  |  |  |  |  |  |  |  |  | 0.945 ± 0.051 | 0.859 ± 0.046 | 0.643 ± 0.086 | 0.388 ± 0.069 | 0.169 ± 0.019 | 0.0592 ± 0.008 | 0.00217 ± 0.0018 | 3.33e-05 ± 0.00035 | 0.0054 ± 0.0013 | 1.02 ± 0.063 | 0.938 ± 0.031 |
| CNC(=O)c1cc(Oc2ccc(NC(=O)Nc3ccc(Cl)c(C(F)(F)F)c3)c(F)c2)ccn1 [Regorafenib] | 1.11 ± 0.054 | 1.03 ± 0.027 | 1.08 ± 0.032 | 1.04 ± 0.017 | 1.02 ± 0.085 | 1.03 ± 0.014 | 1.09 ± 0.036 | 1.05 ± 0.047 | 0.952 ± 0.05 | 0.836 ± 0.017 | 0.523 ± 0.021 |  |  |  |  |  |  |  |  |  |  |  |
| C[C@@H]1CCN(C(=O)CC#N)C[C@@H]1N(C)c1ncnc2[nH]ccc12 [Tofacitinib] | 1 ± 0.032 | 1.05 ± 0.059 | 1.01 ± 0.023 | 1.03 ± 0.049 | 1.04 ± 0.046 | 1.01 ± 0.056 | 0.997 ± 0.056 | 1.01 ± 0.049 | 0.985 ± 0.081 | 1.03 ± 0.056 | 1.02 ± 0.06 |  |  |  |  |  |  |  |  |  |  |  |
| COc1cc2c(Oc3ccc4[nH]c(C)cc4c3F)ncnc2cc1OCCCN1CCCC1 [Cediranib] | 1.04 ± 0.014 | 1.07 ± 0.058 | 1.1 ± 0.02 | 1.06 ± 0.033 | 1.06 ± 0.066 | 1.07 ± 0.015 | 1.062 ± 0.0014 | 1.07 ± 0.064 | 0.877 ± 0.033 | 0.763 ± 0.019 | 0.133 ± 0.049 |  |  |  |  |  |  |  |  |  |  |  |
| CC[C@H](Nc1ncnc2[nH]cnc12)c1nc2cccc(F)c2c(=O)n1-c1ccccc1 [Idelalisib] | 1.06 ± 0.041 | 1.06 ± 0.06 | 1.03 ± 0.024 | 1.08 ± 0.018 | 1.08 ± 0.015 | 1.08 ± 0.051 | 1.04 ± 0.042 | 1.02 ± 0.021 | 1.01 ± 0.056 | 0.905 ± 0.052 | 0.827 ± 0.01 |  |  |  |  |  |  |  |  |  |  |  |
| Cc1cc(Nc2ncnc3ccc(NC4=NC(C)(C)CO4)cc23)ccc1Oc1ccn2ncnc2c1 [Tucatinib] | 1.07 ± 0.025 | 1.04 ± 0.043 | 1.06 ± 0.039 | 1.1 ± 0.022 | 1.13 ± 0.064 | 1.06 ± 0.059 | 1.08 ± 0.079 | 1.06 ± 0.019 | 1.01 ± 0.011 | 0.98 ± 0.023 | 0.883 ± 0.017 |  |  |  |  |  |  |  |  |  |  |  |
| Cn1cc(-c2cc3c(N4CCN(c5ncc([C@@](C)(N)c6ccc(F)cc6)cn5)CC4)ncnn3c2)cn1 [Avapritinib] | 0.98 ± 0.026 | 0.981 ± 0.045 | 0.941 ± 0.011 | 1 ± 0.018 | 0.989 ± 0.05 | 0.96 ± 0.042 | 0.948 ± 0.027 | 0.975 ± 0.036 | 0.906 ± 0.018 | 0.778 ± 0.071 | 0.579 ± 0.022 |  |  |  |  |  |  |  |  |  |  |  |
| CC(C)(C)c1cc(NC(=O)Nc2ccc(-c3cn4c(n3)sc3cc(OCCN5CCOCC5)ccc34)cc2)no1 [Quizartinib] | 0.995 ± 0.028 | 1.05 ± 0.05 | 1.08 ± 0.014 | 1.1 ± 0.036 | 1.08 ± 0.037 | 1.04 ± 0.011 | 1.08 ± 0.035 | 1.1 ± 0.069 | 0.904 ± 0.033 | 0.674 ± 0.049 | 0.594 ± 0.056 |  |  |  |  |  |  |  |  |  |  |  |
| O=C(Nc1cnn2ccc(N3CCC[C@@H]3c3cc(F)ccc3F)nc12)N1CC[C@H](O)C1 [Larotrectinib] | 1.01 ± 0.018 | 1.04 ± 0.048 | 1.04 ± 0.026 | 1.04 ± 0.064 | 1.04 ± 0.038 | 1.03 ± 0.053 | 1 ± 0.02 | 1.02 ± 0.062 | 1 ± 0.03 | 0.969 ± 0.034 | 1.03 ± 0.058 |  |  |  |  |  |  |  |  |  |  |  |
| Cc1nc(-c2cn3c(n2)-c2ccc(-c4cnn(C(C)(C)C(N)=O)c4)cc2OCC3)n(C(C)C)n1 [Taselisib] | 0.973 ± 0.069 | 0.984 ± 0.066 | 0.985 ± 0.013 | 0.994 ± 0.028 | 0.899 ± 0.074 | 0.761 ± 0.038 | 0.541 ± 0.045 | 0.41 ± 0.012 | 0.348 ± 0.017 | 0.288 ± 0.012 | 0.22127 ± 0.00015 |  |  |  |  |  |  |  |  |  |  |  |
| Cc1nc(NC(=O)N2CCC[C@H]2C(N)=O)sc1-c1ccnc(C(C)(C)C(F)(F)F)c1 [Alpelisib] | 1.02 ± 0.032 | 1 ± 0.047 | 1.01 ± 0.039 | 1.01 ± 0.054 | 0.995 ± 0.057 | 0.931 ± 0.033 | 0.888 ± 0.052 | 0.675 ± 0.057 | 0.558 ± 0.0047 | 0.425 ± 0.024 | 0.289 ± 0.02 |  |  |  |  |  |  |  |  |  |  |  |
| Cn1cnc2c(F)c(Nc3ccc(Br)cc3F)c(C(=O)NOCCO)cc21 [Binimetinib] | 1.03 ± 0.019 | 1.02 ± 0.018 | 0.988 ± 0.021 | 0.984 ± 0.058 | 0.95 ± 0.028 | 0.957 ± 0.045 | 0.983 ± 0.036 | 0.923 ± 0.015 | 0.945 ± 0.05 | 0.893 ± 0.027 | 0.861 ± 0.077 |  |  |  |  |  |  |  |  |  |  |  |
| CCc1cc2c(cc1N1CCC(N3CCOCC3)CC1)C(C)(C)c1[nH]c3cc(C#N)ccc3c1C2=O [Alectinib] | 1 ± 0.048 | 1.04 ± 0.023 | 1.07 ± 0.025 | 1.07 ± 0.025 | 1.02 ± 0.031 | 1.03 ± 0.02 | 1.06 ± 0.084 | 1.01 ± 0.068 | 1.08 ± 0.056 | 1.04 ± 0.035 | 0.915 ± 0.068 |  |  |  |  |  |  |  |  |  |  |  |
